Measured values taken from patent publication US9012414B2, “Cosmetic composition” (Guerlain, priority 2010, dated 2015).
Entries after “also recorded” stand apart in the source; their conditions may differ.

What was measured:
[1] = Solubility of the isolated vandaterosides; assay type: physicochemical
[2] = tested on: mitochondrial dehydrogenases (complex I and complex II) of normal human keratinocytes (NHKs); test: Stimulation of mitochondrial dehydrogenases on keratinocytes (XTT conversion to formazan); assay type: cell-based; conditions: treatment 48 h; for Stimulation of mitochondrial dehydrogenase activity / mitochondrial respiratory functions (XTT): NHKs without irradiation, 6.25 to 0.78 μg/ml
Procedure: Normal human keratinocytes (NHKs), isolated from eyelids of 37-year-old Caucasian women, are cultured at passage 3 in complemented (Invitrogen) Keratinocyte Serum Free Medium (KSFM, Invitrogen) supplemented with 5% of fetal calf serum (FCS, Invitrogen).
The NHKs are seeded in 96-well plates (Greiner Bio One) in a proportion of 1.10^4 cells/well, and then incubated at 37° C., 5% CO2 for 24 h. These cells are then treated, after UVB irradiation (60 mJ/cm^2 Vilbeit-Lourmat irradiator) or without irradiation, with serial dilutions of the VT1, VT2 and VT3 compounds (from 6.25 to 0.78 μg/ml) diluted in DMSO (sigma) 0.1% v/v final concentration. The plates are incubated at 37° C., 5% CO2. The untreated cells containing 0.1% v/v of DMSO are considered to be a negative control. After treatment for 48 h, the supernatants are removed and the XTT solution (Cell proliferation kit II, Roche Diagnostic) is deposited in each well in order to determine the overall activity of the mitochondrial dehydrogenases. This activity is evaluated by means of the conversion of an XTT tetrazolium salt to soluble formazan, via a cell mechanism which calls for the enzymatic activities of the glycolytic NAD(P)H dehydrogenase (complex I) and of succinate dehydrogenase (complex II), which are constituents of the mitochondrial respiratory chain. The amount of colored formazan (determined by reading optical density at 450 nm) is directly related, firstly, to the enzymatic activity of the mitochondrial dehydrogenases and, secondly, to the amount of metabolically active cells (Roehm et al. J. Immunol. Methods, 1991; 142: 257-265). […] The 96-well plates are read at 450 nm with a spectrofluorometer (SpectraFluor Plus, Tecan). […]
The results are expressed as mean of the optical densities (OD) at 450 nm and standardized relative to the total concentration of cell proteins (expressed in μg/ml), which makes it possible to measure only the activity of the dehydrogenases and to dispel with the impact of cell proliferation on the measurement of the ODs obtained. […]

cytochrome C oxidase = test: Stimulation of cytochrome C oxidase on modified human keratinocytes (HaCaT); assay type: cell-based; conditions: for Activation of cytochrome C oxidase activity: HaCaT cells, treatment 3 h, positive control resveratrol 11.41 μg/ml (50 μM)
Procedure: The objective of the study is to evaluate the potential of the compounds which are the subject of the invention for stimulating the performance levels of the mitochondrial respiratory chain. The assays are carried out on genetically modified human keratinocytes (HaCaT).
The HaCaT cells were cultured in 6-well plates in RPMI 1640 medium (Roswell Park Memorial Institute) w/o HEPES (Invitrogen) supplemented with 10% of fetal calf serum (FCS, Invitrogen) and a penicillin/streptomycin mixture, until confluence. They were then treated, in DMEM (Dulbecco's Modified Eagle Medium, Invitrogen) containing 4.5 g/L of glucose, 0.1% BSA (Bovine Serum albumin AM2618 Invitrogen), with serial dilutions of vandaterosides (from 6.25 to 0.78 μg/ml) diluted in DMSO (0.1% v/v final concentration). Resveratrol (Sigma) at 50 μM, i.e. 11.41 μg/ml, was used as positive reference. The untreated cells containing 0.1% v/v of DMSO were considered to be a negative control. After treatment for 3 h, the cells were lysed (20 mM HEPES, 0.1% Triton, 1 mM EDTA) and the total cell proteins were assayed by means of the Bradford technique (B6916 Sigma). The total protein concentration of each sample was then adjusted to 2 mg/ml.
The cell lysate was incubated in the presence of an assay buffer (Sigma) in order to determine the enzymatic kinetics without the addition of substrate, denoted Vo. Cytochrome C (from equine heart C-7752 Sigma) reduced with DTT (dithiothreitol, Sigma) was added to the assay buffer at 50 μM in order to measure the rate of the enzymatic reaction. The disappearance of the reduced cytochrome C was monitored using a spectrophotometer [Beckman DU 640] at 550 nm for 90 seconds according to the manufacturer's (Sigma) instructions. The results were calculated from the enzymatic kinetics curves and are expressed as cytochrome C oxidase activity (U/μg of proteins).
The equations allowing the calculation of the enzymatic activities are the following: Enzymatic activity of cytochrome C in U/ml=ACOX=(DA/min)/21.84 with: • DA/min=A/min(v)−A/min (v0) • 21.84 (mM)=ε(molar extinction coefficient) of ferrocytochrome C at 550 nm • A=Absorbance at 550 nm • A/min(v)=Absorbance at 550 nm at time “v” in minutes, corresponding to the time of the measurement after the addition of the substrate; • A/min (v0)=Absorbance at 550 nm at time “v0” (at the start, i.e. before the addition of substrate) in minutes.
The results are expressed by comparison of the enzymatic activity measured in the presence of the vandaterosides (ACOX samples) relative to the control enzymatic activity (ACOX control): i.e. (ACOX samples)/(ACOX control).
A calculated (ACOX samples)/(ACOX control) ratio of greater than 1 indicates stimulation of the activity of cytochrome C oxidase in the presence of the samples.

HaCaT cells = test: Measurement of mitochondrial biogenesis on modified human keratinocytes (HaCaT), qPCR of 16S and COX2 DNA versus UCP-2; assay type: cell-based; conditions: 48 h
Procedure: The objective is to verify whether or not the increase in enzymatic activity measured is linked to a basal stimulation of the respiratory chain of the mitochondria initially present or to an increase in the number of intracellular mitochondria, indicative of a stimulation of mitochondrial biogenesis.
The HaCaT cells are cultured in 6-well plates and then treated as described above. After treatment for 48 h, the cells are lysed with a buffer consisting of 10 mM of Tris base, 1 mM EDTA, 0.3M of sodium acetate and 1% SDS (1 ml/well) and according to an incubation time of overnight at 55° C. The mitochondrial DNA is extracted from the cell lysate with a phenol solution (1/1 ratio). Two cycles of centrifugation at 4000 rpm (5 minutes) are carried out. A solution de CHCl3/isoamyl alcohol (24:1, v/v) is then added to the upper aqueous phase, recovered after settling out. The mixture is then centrifuged (5 minutes, 4000 rpm, 4° C.).
Precipitation of the total DNA is induced by adding an absolute ethanol/3M sodium acetate mixture ([…]) to the supernatant. After centrifugation (30 minutes, 12000 rpm, 4° C.), the pellets are washed with EtOH at 70° v/v, and then dried and taken up in deionized water. The DNA is assayed using a spectrometer (Thermo Scientific Nanodrop). The DNA solutions are adjusted to a concentration of 10 ng/μl.
The expression of three different genes is measured by qPCR. This technique makes it possible to measure the amount of DNA polymerized by means of a fluorescent label. […]
The fluorescence is measured after the 45 cycles and the amount of DNA obtained is determined by means of the DNA range.
The results are expressed in amount of 16S and COX2 (QCOX2) DNA, calculated according to the amount of UCP-2 genomic DNA (QUCP-2), and which is defined as (QCOX2)/(QUCP-2)
A calculated (QCOX2)/(QUCP-2) ratio of greater than 1 indicates an increase in the amount of mitochondrial DNA, and reflects an increase in the number of intracellular mitochondria.

[3] = tested on: keratinocyte differentiation proteins (transglutaminase, involucrin, desmoglein 1); test: Stimulation of the differentiation of normal human keratinocytes (immunolabeling of differentiation proteins); assay type: cell-based; conditions: NHKs, 12 μg/ml, treatment 5 days
Procedure: (§1) The NHKs are cultured at passage 3 in complete KSFM medium in a T75 flask. At the pre-confluence stage, the NHKs are trypsinized and seeded in a proportion of 20 000 cells per well in 8-well Lab-Tek II culture systems (Nalge Nunc International), 4 wells per treatment condition. At 80% confluence, the cells are treated for 5 days with the various compositions of active agents (VT1, VT2, VT3, each at 12 μg/ml) until the post-confluence stage is reached. Vitactyl® clair (extract of Malva sylvestris, Silab) at 3% is used as a positive control.
(§2) The cells are rinsed with PBS (PBS Tablets, Invitrogen GIBCO) and then fixed with formalin (Formalin Solution, 10%, Neutral Buffered, Sigma) for 10 minutes.
(§3) After rinsing with PBS, the culture chambers are filled with a 0.1% Triton solution (Triton X-100, Sigma) for 10 minutes in order to permeabilize the membranes, and then rinsed twice with PBS. The cells are then covered with a solution of PBS/1% BSA (BSA, Sigma) for 30 minutes at ambient temperature. The PBS/BSA solution is removed from the slides by inclining them on absorbent paper. […]
(§4) For each condition, four photos are taken in green fluorescence (expression of the markers) with the ×20 objective. […]
(§5) The photos are analyzed using the Leica QWin image analysis software. A program is created in order to quantify the expression of these differentiation markers.

involucrin = test: Involucrin expression in normal human keratinocytes (immunolabeling); assay type: cell-based; conditions: NHKs, 12 μg/ml, treatment 5 days
Procedure: as §1, §2, §3, §4, §5

[4] = concentrations tested other than VT1 at 6.25 μg/ml

Solubility in MeOH and DMSO [1] | Solubility in water ([1]; water) | Concentration at which a gel forms in water ([1]; water) | Cytochrome C oxidase activity level compared with resveratrol (cytochrome C oxidase; HaCaT, 1.56 μg/ml (2 μM), 3 h, versus resveratrol 11.41 μg/ml (50 μM)) | Stimulation of keratinocyte differentiation protein expression compared with the negative control [3] | Dose effect on cytochrome C oxidase activity (cytochrome C oxidase; HaCaT, 6.25 to 0.78 μg/ml, 3 h) | SMILES | Stimulation of mitochondrial dehydrogenase activity / mitochondrial respiratory functions (XTT) [2] | Stimulation of the activity of the dehydrogenases relative to the negative control ([2]; NHKs, 0.78 μg/ml (1 μM), negative control DMSO 0.1%) | Activation of cytochrome C oxidase activity (cytochrome C oxidase; 6.25 to 0.78 μg/ml) | Activation of mitochondrial biogenesis (increase in number of intracellular mitochondria) (HaCaT cells; [4]) | Involucrin expression compared with positive control Vitactyl clair at 3% (involucrin) | Activation of mitochondrial biogenesis (increase in number of intracellular mitochondria) (HaCaT cells; 6.25 μg/ml, the exception means activation was seen)
soluble | low solubility | – | – | – | – | O=C(/C=C/c1ccccc1)O[C@H]1[C@H](OC(CC(=O)OCc2ccc(O[C@@H]3O[C@H](CO)[C@@H](O)[C@H](O)[C@H]3O)cc2)(Cc2ccc(O)cc2)C(=O)OCc2ccc(O[C@@H]3O[C@H](CO)[C@@H](O)[C@H](O)[C@H]3O)cc2)O[C@H](CO)[C@@H](O)[C@@H]1O (stereo partly drawn) [VT3, 14-bis(4-β-D-glucopyranosyloxybenzyl)-(2R)-2-(2-β-D-glucopyranosyl-3-trans-cinnamoyl ester)-2-(p-hydroxybenzyl)malate] | – | – | – | – | – | –
soluble | low solubility | approximately 10 mM | comparable to resveratrol | most effective | – | O=C(CC(O)(Cc1ccc(O)cc1)C(=O)OCc1ccc(O[C@@H]2O[C@H](CO)[C@@H](O)[C@H](O)[C@H]2O)cc1)OCc1ccc(O[C@@H]2O[C@H](CO)[C@@H](O)[C@H](O)[C@H]2O)cc1 (stereo partly drawn) [VT2, 1,4-bis(4-β-D-glucopyranosyloxybenzyl)-(2R)-2-(p-hydroxybenzyl) malate] | most effectively stimulate | +39% | stimulatory effect; also recorded: best cytochrome C oxidase activator | neither of the two compounds induces an activation of mitochondrial biogenesis | greater than that of the positive control | –
soluble | low solubility | – | – | most effective | A dose effect is observed | O=C(CC(O)(Cc1ccc(O)cc1)C(=O)O)OCc1ccc(O[C@@H]2O[C@H](CO)C(O)[C@H](O)[C@H]2O)cc1 (stereo partly drawn) [VT1, 4-(4-β-D-glucopyranosyloxybenzyl)-(2R)-2-(p-hydroxybenzyl) malate] | most effectively stimulate | – | stimulatory effect | neither of the two compounds induces an activation of mitochondrial biogenesis | – | with the exception of VT1 at 6.25 μg/ml
